Assay: In vivo pharmacokinetic (PK) profile following intramuscular (IM) dosing in rats
Conditions: rat; for plasma levels at 30 mins compared with undeuterated DMT: […] (as fumarate) IM dose; for Cmax compared with DMT (SPL026): following IM dosing, p=0.005

| SMILES | increase in AUC0-inf at 10 mg/kg dose compared to […] dose level (IM) | plasma levels at 30 mins compared with undeuterated DMT | Cmax compared with DMT (SPL026) |
| --- | --- | --- | --- |
| O=C(O)/C=C/C(=O)O.[2H]C([2H])(Cc1c[nH]c2ccccc12)N(C)C [SPL028i, α,α,-bis-deuterium-N,N-dimethyltryptamine fumarate salt] | 237% | significantly higher plasma levels | significantly higher |
| O=C(O)/C=C/C(=O)O.[2H]C([2H])([2H])N(C([2H])([2H])[2H])C([2H])([2H])Cc1c[nH]c2ccccc12 [SPL028viii, α,α,bis-deuterio-N,N-hexadeuterio-dimethyltryptamine fumarate salt] | – | significantly higher plasma levels | significantly higher |

— patent US12318477B2, “Injectable and inhalable formulations” (CYBIN UK LTD, priority 2021, dated 2025)
